One test concerns Calu6 cells. Nature of the test: Proliferation assay (CyQuant Direct), Calu6 cells. The format is cell-based. The conditions noted are these: Homo sapiens, Calu-6; 72 hour incubation; read-out: GI50 antiproliferative effect on Calu6 cells. The procedure:
(§1) Experimental Procedure of Proliferation Assay:
(§2) A375 and Calu6 cells are grown in RPMI1640, 10% FBS, in a humidified atmosphere of 5% CO2 at 37° C. Cells are seeded into flat bottom 96 well microtiter plates and incubated in a humidified atmosphere of 5% CO2 at 37° C. for 24 hours. Compounds are added, at the same time, a “time zero” untreated cell plate is stained and measured after 1 h. Compounds are serially diluted 5-fold from the highest test concentration (10 μM) and assayed over 8 concentrations in duplicates. The concentration of the solvent DMSO in the final culture is 0.1%. After a 72 hour incubation period, cells are stained with fluorescent nuclear dye to allow visualization of nuclei (CyQuant Direct Cell Proliferation Assay, Invitrogen Cat. No. C35012). Total fluorescence intensity of each well is measured using an Envision platform with excitation at 480 nm, emission detection at 535 nm. The assay signal correlates to the number of nuclei and thus, by definition, to the number of cells in the culture well (“cell count”).
(§3) The cell proliferation assay output for control cells after 72 hours of incubation, corresponding to 100% cell proliferation, is taken as the reference cell count for all subsequent calculations. Relative cell proliferation in compound-treated cultures (signal percent of control, “POC”) is calculated according to the following formula: POC(t=72 h)=100*fluorescence(compound wells)/fluorescence(control wells)
(§4) In addition, for each compound-treated culture, the cell count after incubation for 72 hours (POC(t=72h)) is related to the cell count at the start of treatment (POC(t=0 h)): POC(t=0 h)=100*fluorescence at t=0(control wells)/fluorescence at t=72 h(control wells)
(§5) The concentration-response curves were calculated using the dose-response package (drc versio 2.0-1 http://cran.rproject.org/web/packages/drc/index.html) from R (version 2.10.1 http://www.r-project.org/). […]
(§6) Relative cell growth inhibition (CGI %) in compound-treated cultures is calculated according to the following formula: […]

The next test deals with A375 cells. Put plainly: Proliferation assay (CyQuant Direct), A375 cells. The format is cell-based. The following applies: Homo sapiens, A-375; 72 hour incubation; read-out: GI50 antiproliferative effect on A375 cells. The procedure: as §1, §2, §3, §4, §5, §6

For `CCNC(=O)C#Cc1ccc2c(c1)NC(=O)/C2=C(\Nc1ccc(CN(C)C)cc1)c1ccccc1` [Compound 6, 3-[3-[[4-(dimethylaminomethyl)anilino]-phenylmethylidene]-2-oxo-1H-indol-6-yl]-N-ethylprop-2-ynamide], the GI50 (as a rule, the concentration giving 50% growth inhibition) in the test on Calu6 cells is 7.66 nM; in the test with A375 cells, 2.7 nM.
On the same counts, the results for `CCNC(=O)C#Cc1ccc2c(c1)NC(=O)/C2=C(\Nc1ccc(CNC)cc1)c1ccccc1` [Compound 26, 3-[3-[[4-(methylaminomethyl)anilino]-phenylmethylidene]-2-oxo-1H-indol-6-yl]-N-ethylprop-2-ynamide] are 7.82 nM and 3.37 nM.
For `CCNC(=O)C#Cc1ccc2c(c1)NC(=O)/C2=C(\Nc1ccc(C[N+](C)(C)[O-])cc1)c1ccccc1` [Compound 27, 3-[3-[[4-(dimethyloxidoaminomethyl)anilino]-phenylmethylidene]-2-oxo-1H-indol-6-yl]-N-ethylprop-2-ynamide], the GI50 was 11.3 nM in the test on Calu6 cells and 17.3 nM in the test with A375 cells.
